These results are taken from patent US9624170B2, “4-(piperrazin-1-yl)-pyrrolidin-2-one compounds as monoacylglycerol lipase (MAGL) inhibitors” (TAKEDA PHARMACEUTICAL COMPANY LIMITED, priority 2013, dated 2017).

The assay deals with T1, human MAGL (His-hMAGL) (Homo sapiens, UniProt Q99685).
T1 construct: made in house; host or cells: Escherichia coli BL21(DE3)
T1 sequence (Q99685 1-303): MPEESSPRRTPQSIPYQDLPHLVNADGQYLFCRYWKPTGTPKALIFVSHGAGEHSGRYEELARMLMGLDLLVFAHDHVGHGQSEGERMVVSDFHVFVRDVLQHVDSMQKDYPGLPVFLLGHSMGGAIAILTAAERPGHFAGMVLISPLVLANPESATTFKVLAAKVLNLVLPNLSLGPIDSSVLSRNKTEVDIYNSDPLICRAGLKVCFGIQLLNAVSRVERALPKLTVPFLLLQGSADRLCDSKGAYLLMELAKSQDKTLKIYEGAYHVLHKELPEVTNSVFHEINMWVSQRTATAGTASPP
Description: Measurement of MAGL inhibitory activity by mass spectrometry. The assay is classed as biochemical. Conditions: MAGL inhibitory rate, test compound 10 μM, His-hMAGL, substrate 2-arachidonylglycerol, RapidFire-mass spectrometry. Summed up:
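His-tagged human MAGL was reacted with 150 μM 2-arachidonylglycerol substrate (stock, added by 5 μL) for 10 min at room temperature, then stopped with formic acid. Arachidonic acid product was quantified by RapidFire–triple-quadrupole MS in negative SRM mode, corrected by arachidonic acid-d8, and converted to percent inhibition.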
In the case of `O=C(c1nccs1)N1CCN(C2CC(=O)N(c3cccc(-c4cccc(Cl)c4Cl)c3)C2)CC1` (stereo not drawn) [Example 293, 1-(2′,3′-dichlorophenyl-3-yl)-4-(4-(1,3-thiazol-2-ylcarbonyl)piperazin-1-yl)pyrrolidin-2-one], the inhibition (as a rule, the change of the read-out against control, counted positive when it falls) at 10 µM stood at 103%. With `O=C(c1nccs1)N1CCN(C2CC(=O)N(c3cccc(-c4csc5ccccc45)c3)C2)CC1` (stereo not drawn) [Example 294, 1-(3-(1-benzothiophen-3-yl)phenyl)-4-(4-(1,3-thiazol-2-ylcarbonyl)piperazin-1-yl)pyrrolidin-2-one] the figure was 100%.

`N#Cc1ccc(-c2cccc(N3CC(N4CCN(C(=O)c5nccs5)CC4)CC3=O)c2)cc1` (stereo not drawn) [Example 295, 3′-(2-oxo-4-(4-(1,3-thiazol-2-ylcarbonyl)piperazin-1-yl)pyrrolidin-1-yl)biphenyl-4-carbonitrile]: the inhibition at 10 µM is 98%. With `O=C(c1nccs1)N1CCN(C2CC(=O)N(c3cccc(-c4ccc(F)cc4F)c3)C2)CC1` (stereo not drawn) [Example 296, 1-(2′,4′-difluorobiphenyl-3-yl)-4-(4-(1,3-thiazol-2-ylcarbonyl)piperazin-1-yl)pyrrolidin-2-one] the figure was 102%; with `O=C(c1nccs1)N1CCN(C2CC(=O)N(c3cccc(-c4cccc(OC(F)(F)F)c4)c3)C2)CC1` (stereo not drawn) [Example 297, 4-(4-(1,3-thiazol-2-ylcarbonyl)piperazin-1-yl)-1-(3′-(trifluoromethoxy)biphenyl-3-yl)pyrrolidin-2-one], 103%.

For the compound `O=C(c1nccs1)N1CCN(C2CC(=O)N(c3cccc(-c4ccccc4OC(F)(F)F)c3)C2)CC1` (stereo not drawn) [Example 298, 4-(4-(1,3-thiazol-2-ylcarbonyl)piperazin-1-yl)-1-(2′-(trifluoromethoxy)biphenyl-3-yl)pyrrolidin-2-one], the inhibition at 10 µM is 101%. For the compound `O=C(c1nccs1)N1CCN(C2CC(=O)N(c3cccc(-c4cccc(F)c4F)c3)C2)CC1` (stereo not drawn) [Example 299, 1-(2′,3′-difluorobiphenyl-3-yl)-4-(4-(1,3-thiazol-2-ylcarbonyl)piperazin-1-yl)pyrrolidin-2-one], the inhibition at 10 µM worked out at 102%. For the compound `O=C(c1nccs1)N1CCN(C2CC(=O)N(c3cccc(-c4cc(Cl)ccc4Cl)c3)C2)CC1` (stereo not drawn) [Example 300, 1-(2′,5′-dichlorobiphenyl-3-yl)-4-(4-(1,3-thiazol-2-ylcarbonyl)piperazin-1-yl)pyrrolidin-2-one], the inhibition at 10 µM amounted to 101%. With `Cc1cc(F)ccc1-c1cccc(N2CC(N3CCN(C(=O)c4nccs4)CC3)CC2=O)c1` (stereo not drawn) [Example 301, 1-(4′-fluoro-2′-methylbiphenyl-3-yl)-4-(4-(1,3-thiazol-2-ylcarbonyl)piperazin-1-yl)pyrrolidin-2-one], the inhibition at 10 µM came out at 104%. Regarding `CS(=O)(=O)Nc1ccccc1-c1cccc(N2CC(N3CCN(C(=O)c4nccs4)CC3)CC2=O)c1` (stereo not drawn) [Example 302, N-(3′-(2-oxo-4-(4-(1,3-thiazol-2-ylcarbonyl)piperazin-1-yl)pyrrolidin-1-yl)biphenyl-2-yl)methanesulfonamide], the inhibition at 10 µM was 98%. In the case of `CC(=O)Nc1ccccc1-c1cccc(N2CC(N3CCN(C(=O)c4nccs4)CC3)CC2=O)c1` (stereo not drawn) [Example 303, N-(3′-(2-oxo-4-(4-(1,3-thiazol-2-ylcarbonyl)piperazin-1-yl)pyrrolidin-1-yl)biphenyl-2-yl)acetamide], the inhibition at 10 µM was determined as 88%. Regarding `O=C(c1nccs1)N1CCN(C2CC(=O)N(c3cccc(-c4ccc(Cl)cc4F)c3)C2)CC1` (stereo not drawn) [Example 304, 1-(4′-chloro-2′-fluorobiphenyl-3-yl)-4-(4-(1,3-thiazol-2-ylcarbonyl)piperazin-1-yl)pyrrolidin-2-one], the inhibition at 10 µM stood at 100%. With `O=C(c1nccs1)N1CCN(C2CC(=O)N(c3cccc(-c4ccc(C(F)(F)F)cc4Cl)c3)C2)CC1` (stereo not drawn) [Example 305, 1-(2′-chloro-4′-(trifluoromethyl)biphenyl-3-yl)-4-(4-(1,3-thiazol-2-ylcarbonyl)piperazin-1-yl)pyrrolidin-2-one] the figure was 96%.

For the compound `O=C(c1nccs1)N1CCN(C2CC(=O)N(c3cccc(-c4ccccc4N4CCOCC4)c3)C2)CC1` (stereo not drawn) [Example 306, 1-(2′-(morpholin-4-yl)biphenyl-3-yl)-4-(4-(1,3-thiazol-2-ylcarbonyl)piperazin-1-yl)pyrrolidin-2-one], the inhibition at 10 µM was 102%. With `O=C(c1nccs1)N1CCN(C2CC(=O)N(c3cccc(-c4cccc5[nH]ccc45)c3)C2)CC1` (stereo not drawn) [Example 307, 1-(3-(1H-indol-4-yl)phenyl)-4-(4-(1,3-thiazol-2-ylcarbonyl)piperazin-1-yl)pyrrolidin-2-one] the figure was 103%; with `O=C(O)c1cccc(-c2cccc(N3CC(N4CCN(C(=O)c5nccs5)CC4)CC3=O)c2)c1` (stereo not drawn) [Example 308, 3′-(2-oxo-4-(4-(1,3-thiazol-2-ylcarbonyl)piperazin-1-yl)pyrrolidin-1-yl)biphenyl-3-carboxylic acid], 98%; with `CC(C)Oc1ccccc1-c1cccc(N2CC(N3CCN(C(=O)c4nccs4)CC3)CC2=O)c1` (stereo not drawn) [Example 309, 1-(2′-isopropoxybiphenyl-3-yl)-4-(4-(1,3-thiazol-2-ylcarbonyl)piperazin-1-yl)pyrrolidin-2-one], 103%. For the compound `COc1cc(C(F)(F)F)ccc1-c1cccc(N2CC(N3CCN(C(=O)c4nccs4)CC3)CC2=O)c1` (stereo not drawn) [Example 310, 1-(2′-methoxy-4′-(trifluoromethyl)biphenyl-3-yl)-4-(4-(1,3-thiazol-2-ylcarbonyl)piperazin-1-yl)pyrrolidin-2-one], the inhibition at 10 µM amounted to 98%. For `O=C(c1nccs1)N1CCN(C2CC(=O)N(c3cccc(-c4cccc5ccccc45)c3)C2)CC1` (stereo not drawn) [Example 311, 1-(3-(1-naphthyl)phenyl)-4-(4-(1,3-thiazol-2-ylcarbonyl)piperazin-1-yl)pyrrolidin-2-one], the inhibition at 10 µM was 103%. In the case of `Cc1nn(C)c(C)c1-c1cccc(N2CC(N3CCN(C(=O)c4nccs4)CC3)CC2=O)c1` (stereo not drawn) [Example 312], the inhibition at 10 µM is 101%.

As to `O=C(c1nccs1)N1CCN(C2CC(=O)N(c3cccc(-c4cccc5ccsc45)c3)C2)CC1` (stereo not drawn) [Example 313, 1-(3-(1-benzothiophen-7-yl)phenyl)-4-(4-(1,3-thiazol-2-ylcarbonyl)piperazin-1-yl)pyrrolidin-2-one], the inhibition at 10 µM was 101%. Regarding `O=C(c1nccs1)N1CCN(C2CC(=O)N(c3cccc(-c4cccc5c4OCC5)c3)C2)CC1` (stereo not drawn) [Example 314, 1-(3-(2,3-dihydro-1-benzofuran-7-yl)phenyl)-4-(4-(1,3-thiazol-2-ylcarbonyl)piperazin-1-yl)pyrrolidin-2-one], the inhibition at 10 µM worked out at 104%.

As to `O=C(c1nccs1)N1CCN(C2CC(=O)N(c3cccc(-c4ccc(F)c(C(F)(F)F)c4)c3)C2)CC1` (stereo not drawn) [Example 315, 1-(4′-fluoro-3′-(trifluoromethyl)biphenyl-3-yl)-4-(4-(1,3-thiazol-2-ylcarbonyl)piperazin-1-yl)pyrrolidin-2-one], the inhibition at 10 µM worked out at 101%. Take `N#Cc1ccc(-c2cccc(N3CC(N4CCN(C(=O)c5nccs5)CC4)CC3=O)c2)c(F)c1` (stereo not drawn) [Example 316, 2-fluoro-3′-(2-oxo-4-(4-(1,3-thiazol-2-ylcarbonyl)piperazin-1-yl)pyrrolidin-1-yl)biphenyl-4-carbonitrile]: the inhibition at 10 µM amounted to 97%.
